{"source": "the supplement of paper PMC8967900", "data": [{"system": "COG-LL-394h", "experiment": "selective drug sensitivity score (sDSS, relative to normal bone marrow) (sDSS (score)); higher = more potent and effective on the cell line relative to normal bone marrow cells", "details": "72 h", "values": [{"molecule": "Cc1nc(Nc2ncc(C(=O)Nc3c(C)cccc3Cl)s2)cc(N2CCN(CCO)CC2)n1", "note": "[Dasatinib] (top concentration 1000 nM)", "selective drug sensitivity score": 0.3}, {"molecule": "N[C@@H]1CCCN(c2c(/C=C3\\SC(=O)NC3=O)cccc2-c2ccccc2)C1", "note": "[AZD1208] (top concentration 10000 nM)", "selective drug sensitivity score": 1}, {"molecule": "CC(C)C[C@H](NC(=O)CNC(=O)c1cc(Cl)ccc1Cl)B(O)O", "note": "[Ixazomib] (top concentration 1000 nM)", "selective drug sensitivity score": 5.26}, {"molecule": "C=CC(=O)N1CCC[C@@H](n2nc(-c3ccc(Oc4ccccc4)cc3)c3c(N)ncnc32)C1", "note": "[Ibrutinib] (top concentration 1000 nM)", "selective drug sensitivity score": 0}, {"molecule": "Cn1cnc2c(F)c(Nc3ccc(Br)cc3F)c(C(=O)NOCCO)cc21", "note": "[Binimetinib] (top concentration 1000 nM)", "selective drug sensitivity score": 0.48}, {"molecule": "COc1cc(Nc2ncc(F)c(Nc3ccc4c(n3)N(COP(=O)(O)O)C(=O)C(C)(C)O4)n2)cc(OC)c1OC", "note": "[Fostamatinib] (top concentration 2500 nM)", "selective drug sensitivity score": -1.54}, {"molecule": "COc1cc2c(Oc3ccc(NC(=O)C4(C(=O)Nc5ccc(F)cc5)CC4)cc3F)ccnc2cc1OCCCN1CCOCC1", "note": "[Foretinib] (top concentration 1000 nM)", "selective drug sensitivity score": 1.84}, {"molecule": "Sc1ncnc2nc[nH]c12", "note": "[Mercaptopurine] (top concentration 10000 nM)", "selective drug sensitivity score": 0.5}, {"molecule": "COCCNCc1ccc(-c2cc3nccc(Oc4ccc(NC(=S)NC(=O)Cc5ccc(F)cc5)cc4F)c3s2)nc1", "note": "[Glesatinib] (top concentration 2500 nM)", "selective drug sensitivity score": 0.84}, {"molecule": "Cn1nccc1Nc1nccc(-c2ccn([C@H](CO)c3ccc(Cl)c(F)c3)c(=O)c2)n1", "note": "[Ravoxertinib] (top concentration 10000 nM)", "selective drug sensitivity score": -0.2}, {"molecule": "CC1=NN(c2ccc(C(=O)O)cc2)C(=O)C1=Cc1ccc(-c2cc(C)c(C)cc2[N+](=O)[O-])o1", "note": "[C646] (top concentration 25000 nM)", "selective drug sensitivity score": -0.66}, {"molecule": "CC(C)c1cc(C(=O)N2Cc3ccc(CN4CCN(C)CC4)cc3C2)c(O)cc1O", "note": "[Onalespib] (top concentration 2500 nM)", "selective drug sensitivity score": -2.38}, {"molecule": "CCN1C(=O)CNc2ncc(-c3ccc(-c4nc[nH]n4)nc3C)nc21", "note": "[CC-115] (top concentration 10000 nM)", "selective drug sensitivity score": -2.06}, {"molecule": "COc1cc(N2CCC(N3CCN(C)CC3)CC2)ccc1Nc1ncc(Cl)c(Nc2ccccc2P(C)(C)=O)n1", "note": "[Brigatinib] (top concentration 1000 nM)", "selective drug sensitivity score": -1.84}, {"molecule": "CN1CCN(c2nc(C3=C(c4c[nH]c5ccccc45)C(=O)NC3=O)c3ccccc3n2)CC1", "note": "[Sotrastaurin] (top concentration 10000 nM)", "selective drug sensitivity score": 0.2}, {"molecule": "CCN(CC)Cc1ccc2cc(COC(=O)Nc3ccc(C(=O)NO)cc3)ccc2c1", "note": "[Givinostat] (top concentration 1000 nM)", "selective drug sensitivity score": 2.4}, {"molecule": "CNC(=O)c1cc(Oc2ccc(NC(=O)Nc3ccc(Cl)c(C(F)(F)F)c3)cc2)ccn1", "note": "[Sorafenib] (top concentration 1000 nM)", "selective drug sensitivity score": 0}, {"molecule": "COc1ccc(S(=O)(=O)Nc2cccnc2Nc2ccc(O)cc2)cc1", "note": "[ABT-751] (top concentration 10000 nM)", "selective drug sensitivity score": 3.72}, {"molecule": "C[C@@H](Oc1ccc2[nH]nc(/C=C/c3cnn(CCO)c3)c2c1)c1c(Cl)cncc1Cl", "note": "(top concentration 1000 nM)", "selective drug sensitivity score": -0.54}]}, {"system": "MHH-CALL-3", "experiment": "selective drug sensitivity score (sDSS, relative to normal bone marrow) (sDSS (score)); higher = more potent and effective on the cell line relative to normal bone marrow cells", "details": "72 h", "values": [{"molecule": "Cn1cncc1[C@@](N)(c1ccc(Cl)cc1)c1ccc2c(c1)c(-c1cccc(Cl)c1)cc(=O)n2C", "note": "[Tipifarnib] (top concentration 10000 nM)", "selective drug sensitivity score": 7}, {"molecule": "COc1ccccc1S(=O)(=O)Nc1ccc2c(c1)CN(C)C(=O)N2", "note": "[PFI-1] (top concentration 30000 nM)", "selective drug sensitivity score": 5.4}, {"molecule": "Cc1cn(-c2cc(NC(=O)c3ccc(C)c(Nc4nccc(-c5cnccn5)n4)c3)cc(C(F)(F)F)c2)cn1", "note": "[Radotinib] (top concentration 10000 nM)", "selective drug sensitivity score": 0}, {"molecule": "CC[C@H](Nc1ncnc2[nH]cnc12)c1nc2cccc(F)c2c(=O)n1-c1ccccc1", "note": "[Idelalisib] (top concentration 10000 nM)", "selective drug sensitivity score": 9.44}, {"molecule": "Cc1noc2c1-c1ccccc1C(c1ccc(Cl)cc1)=N[C@H]2CC(N)=O", "note": "[CPI-0610] (top concentration 10000 nM)", "selective drug sensitivity score": 17.9}, {"molecule": "C=C(c1ccc(C(=O)O)cc1)c1cc2c(cc1C)C(C)(C)CCC2(C)C", "note": "[Bexarotene] (top concentration 10000 nM)", "selective drug sensitivity score": 10.2}, {"molecule": "CC1(COc2ccc3c(c2)ncn3-c2ccc3cccc(N4CCC(N)CC4)c3n2)COC1", "note": "[Crenolanib] (top concentration 10000 nM)", "selective drug sensitivity score": -5.32}, {"molecule": "O=C(Nc1cc(Oc2cc(F)c(NC(=O)C3(C(=O)Nc4ccc(F)cc4)CC3)cc2F)ccn1)C1CC1", "note": "[Altiratinib] (top concentration 10000 nM)", "selective drug sensitivity score": -4.86}, {"molecule": "O=C(Nc1ccncc1)C(=O)c1cn(Cc2ccc(Cl)cc2)c2ccccc12", "note": "[Indibulin] (top concentration 10000 nM)", "selective drug sensitivity score": 1.64}, {"molecule": "Cc1ncc(-c2ccnc(Nc3ccc(S(C)(=O)=O)cc3)n2)n1C(C)C", "note": "[AZD-5438] (top concentration 10000 nM)", "selective drug sensitivity score": 6.64}, {"molecule": "NC[C@@](O)(c1ccc(Cl)cc1)c1ccc(-c2cn[nH]c2)cc1", "note": "(top concentration 10000 nM)", "selective drug sensitivity score": 5.78}, {"molecule": "Cn1c(Nc2ccc(C(F)(F)F)cc2)nc2cc(Oc3ccnc(-c4ncc(C(F)(F)F)[nH]4)c3)ccc21", "note": "[NVP-RAF265] (top concentration 1000 nM)", "selective drug sensitivity score": 7.68}, {"molecule": "CNCc1ccc(-c2[nH]c3cc(F)cc4c3c2CCNC4=O)cc1", "note": "[Rucaparib] (top concentration 10000 nM)", "selective drug sensitivity score": 13.8}, {"molecule": "O=C(CCCCCCC(=O)Nc1ccc([C@H]2O[C@@H](CSc3nc(-c4ccccc4)c(-c4ccccc4)o3)C[C@@H](c3ccc(CO)cc3)O2)cc1)NO", "note": "[Tubacin] (top concentration 10000 nM)", "selective drug sensitivity score": 17.8}, {"molecule": "N#CCNC(=O)c1ccc(-c2ccnc(Nc3ccc(N4CCOCC4)cc3)n2)cc1", "note": "[Momelotinib] (top concentration 10000 nM)", "selective drug sensitivity score": -9.42}, {"molecule": "Nc1cccc2c1CN(C1CCC(=O)NC1=O)C2=O", "note": "(stereo unspecified) [Lenalidomide] (top concentration 100000 nM)", "selective drug sensitivity score": -2.28}, {"molecule": "CCN1CCN(Cc2ccc(Nc3ncc(F)c(-c4cc(F)c5nc(C)n(C(C)C)c5c4)n3)nc2)CC1", "note": "[Abemaciclib] (top concentration 2500 nM)", "selective drug sensitivity score": 1.24}, {"molecule": "Cc1cc(Nc2ncc(Cl)c(Nc3ccccc3S(=O)(=O)C(C)C)n2)c(OC(C)C)cc1C1CCNCC1", "note": "[Ceritinib] (top concentration 2500 nM)", "selective drug sensitivity score": -3.44}, {"molecule": "Cc1nc(Nc2ncc(C(=O)Nc3c(C)cccc3Cl)s2)cc(N2CCN(CCO)CC2)n1", "note": "[Dasatinib] (top concentration 1000 nM)", "selective drug sensitivity score": -2.8}, {"molecule": "N[C@@H]1CCCN(c2c(/C=C3\\SC(=O)NC3=O)cccc2-c2ccccc2)C1", "note": "[AZD1208] (top concentration 10000 nM)", "selective drug sensitivity score": -4.4}, {"molecule": "CC(C)C[C@H](NC(=O)CNC(=O)c1cc(Cl)ccc1Cl)B(O)O", "note": "[Ixazomib] (top concentration 1000 nM)", "selective drug sensitivity score": 8.96}, {"molecule": "C=CC(=O)N1CCC[C@@H](n2nc(-c3ccc(Oc4ccccc4)cc3)c3c(N)ncnc32)C1", "note": "[Ibrutinib] (top concentration 1000 nM)", "selective drug sensitivity score": 0}, {"molecule": "Cn1cnc2c(F)c(Nc3ccc(Br)cc3F)c(C(=O)NOCCO)cc21", "note": "[Binimetinib] (top concentration 1000 nM)", "selective drug sensitivity score": 7.18}, {"molecule": "COc1cc(Nc2ncc(F)c(Nc3ccc4c(n3)N(COP(=O)(O)O)C(=O)C(C)(C)O4)n2)cc(OC)c1OC", "note": "[Fostamatinib] (top concentration 2500 nM)", "selective drug sensitivity score": -1.44}, {"molecule": "COc1cc2c(Oc3ccc(NC(=O)C4(C(=O)Nc5ccc(F)cc5)CC4)cc3F)ccnc2cc1OCCCN1CCOCC1", "note": "[Foretinib] (top concentration 1000 nM)", "selective drug sensitivity score": -3.56}, {"molecule": "Sc1ncnc2nc[nH]c12", "note": "[Mercaptopurine] (top concentration 10000 nM)", "selective drug sensitivity score": 0}, {"molecule": "COCCNCc1ccc(-c2cc3nccc(Oc4ccc(NC(=S)NC(=O)Cc5ccc(F)cc5)cc4F)c3s2)nc1", "note": "[Glesatinib] (top concentration 2500 nM)", "selective drug sensitivity score": -0.36}, {"molecule": "Cn1nccc1Nc1nccc(-c2ccn([C@H](CO)c3ccc(Cl)c(F)c3)c(=O)c2)n1", "note": "[Ravoxertinib] (top concentration 10000 nM)", "selective drug sensitivity score": 9.7}, {"molecule": "CC1=NN(c2ccc(C(=O)O)cc2)C(=O)C1=Cc1ccc(-c2cc(C)c(C)cc2[N+](=O)[O-])o1", "note": "[C646] (top concentration 25000 nM)", "selective drug sensitivity score": 4.64}, {"molecule": "CC(C)c1cc(C(=O)N2Cc3ccc(CN4CCN(C)CC4)cc3C2)c(O)cc1O", "note": "[Onalespib] (top concentration 2500 nM)", "selective drug sensitivity score": 8.42}, {"molecule": "CCN1C(=O)CNc2ncc(-c3ccc(-c4nc[nH]n4)nc3C)nc21", "note": "[CC-115] (top concentration 10000 nM)", "selective drug sensitivity score": 1.34}, {"molecule": "COc1cc(N2CCC(N3CCN(C)CC3)CC2)ccc1Nc1ncc(Cl)c(Nc2ccccc2P(C)(C)=O)n1", "note": "[Brigatinib] (top concentration 1000 nM)", "selective drug sensitivity score": -3.34}, {"molecule": "CN1CCN(c2nc(C3=C(c4c[nH]c5ccccc45)C(=O)NC3=O)c3ccccc3n2)CC1", "note": "[Sotrastaurin] (top concentration 10000 nM)", "selective drug sensitivity score": 5.8}, {"molecule": "CCN(CC)Cc1ccc2cc(COC(=O)Nc3ccc(C(=O)NO)cc3)ccc2c1", "note": "[Givinostat] (top concentration 1000 nM)", "selective drug sensitivity score": 15.6}, {"molecule": "CNC(=O)c1cc(Oc2ccc(NC(=O)Nc3ccc(Cl)c(C(F)(F)F)c3)cc2)ccn1", "note": "[Sorafenib] (top concentration 1000 nM)", "selective drug sensitivity score": 0}, {"molecule": "COc1ccc(S(=O)(=O)Nc2cccnc2Nc2ccc(O)cc2)cc1", "note": "[ABT-751] (top concentration 10000 nM)", "selective drug sensitivity score": 3.72}, {"molecule": "C[C@@H](Oc1ccc2[nH]nc(/C=C/c3cnn(CCO)c3)c2c1)c1c(Cl)cncc1Cl", "note": "(top concentration 1000 nM)", "selective drug sensitivity score": -7.04}]}]}
